Test results taken from paper PMC7411605, “Xanthine Oxidase Inhibition and Anti-LDL Oxidation by Prenylated Isoflavones from Flemingia philippinensis Root” (Molecules, 2020).
Values joined by “and” are separate entries in the source; they are usually repeats but may differ in a detail not shown here. Equal values may be shown once. Read-outs that look alike come from different tables or passages of the source.

How the values were obtained:
human LDL [1] = assay: Conjugated diene formation on Cu2+ induced LDL oxidation; assay type: biochemical; conditions: at 10 μM of compound; 234 nm, followed for 180 min
Experimental: The formation of conjugated dienes from oxLDL was assessed by the method. The conjugated diene formation occurred in the clear bottom 96-well plate. The mixture of each well containing 230 μL of 550 μg/mL LDL in the buffer (10 mM PBS, pH 7.4) and 10 μL of 250 μM CuSO4 (final concentration: 10 μM) in the presence or absence of isoflavones or probucol as a positive control (final concentration: 10 μM) were incubated at 37 °C for 4 h. Then, the reaction was screened at 234 nm for 180 min every 5 min, continuously, incubating in the SpectraMax M3 multi-mode microplate reader. In the observed absorbance spectra, the lag time of tested samples was obtained as the endpoint indicated in the lag phase.

human LDL [2] = assay: TBARS assay of Cu2+ induced LDL oxidation; assay type: biochemical; conditions: for IC50: LDL 500 μg/mL, 10 μM Cu2+, 37 °C, 4 h; for Inhibition Rate: at 10 μM of compound, oxidized LDL induced by Cu2+
Experimental: Thiobarbituric acid reactive substances (TBARS) assay was carried out according to the previous method with minor modifications. The absorbance of a product of a reaction between thiobarbituric acid (TBA) and malondialdehyde (MDA) was measured at 540 nm. First, 220 μL of 500 μg/mL LDL in a buffer (10 mM PBS, pH 7.4), 10 μL of […], and 10 μL of different concentrations from 0 to 3 mM of isoflavones or probucol as a positive control were mixed in 1.5 mL Eppendorf tube and incubated at 37 °C for 4 h. After incubation, 100 μL of trichloroacetic acid (TCA) and 100 μL of 0.67% thiobarbituric acid (TBA)/0.05 N NaOH were added to the reaction mixture and heated in the water bath at 100 °C for 15 min. After heating, the mixture was cooled on the ice and centrifuged for 15 min at 3000 rpm. The absorbance of supernatant was measured and the IC50 values were calculated from the inhibition rate derived from Equation (1).

[3] = biological target: T1, Bovine milk xanthine oxidase (XO, EC 1.17.3.2) (Bos taurus, UniProt P80457); assay: Xanthine oxidase activity (uric acid formation at 295 nm); assay type: biochemical; conditions: sample concentration which leads to 50% xanthine oxidase activity loss; xanthine substrate, pH 7.5, 37 °C; read-out: IC50, xanthine oxidase inhibition (converted)
T1 construct: Xanthine oxidase from bovine milk (EC 1.17.3.2); purchased Sigma Aldrich Co., (St. Louis, MO, USA); host or cells: bovine milk
Experimental: The half-maximal inhibitory concentrations (IC50) were calculated according to the enzyme inhibition rate (%) derived from the change of uric acid formation in comparison with the concentration of inhibitors. The inhibition rate derived from the non-linear regression fitting to Equation (1). Inhibition rate (%) = 100 × [(rate of control reaction − rate of inhibitor reaction)/rate of control reaction](1)

xanthine oxidase = biological target: T2, xanthine oxidase (Bos taurus, UniProt P80457); assay: Fluorescence quenching of xanthine oxidase (binding affinity); set-up: species or system bovine; conditions: for Stern–Volmer constant KSV / Kd: excitation 290 nm, emission 300-400 nm; for Kd: read-out: binding constant KA (converted); for number of binding sites n: fluorescence quenching
T2 construct: Xanthine oxidase from bovine milk (EC 1.17.3.2); purchased Sigma Aldrich Co., (St. Louis, MO, USA); host or cells: bovine milk
Experimental: The binding affinity between xanthine oxidase and isolated isoflavones were measured by fluorescence quenching method. For the fluorescence quenching experiments, the Trp intensities of xanthine oxidase were monitored wavelength of emission from 300 to 400 nm and excitation of 290 nm. The reaction mixture containing 180 μL of 200 mM sodium pyrophosphate/HCl (pH 7.5), 10 μL of isolated isoflavones diluted in DMSO (3.125, 6.25, 12.5, 25.0, and 50.0 μM), and 10 μL of 1 unit/mL xanthine oxidase was placed in black/flat bottom 96-well microplates. […] The quenching parameters such as the Stern–Volmer constant (KSV), binding constant (KA), and the number of binding sites (n) were determined by the Equations (5) and (6). F0 − F = 1 + KSV [Q](5) Log [(F0 − F)/F] = log KA + n log [Q]f(6)

[4] = biological target: T1, Bovine milk xanthine oxidase (XO, EC 1.17.3.2); assay: Xanthine oxidase inhibition kinetics (Lineweaver–Burk and Dixon plots); assay type: biochemical; conditions: for Inhibition Mode: Lineweaver–Burk plots, xanthine 15, 30, 60 μM; for KIS: binding of inhibitor to enzyme-substrate complex, secondary plot of intercept
Experimental: The inhibition mode and inhibitory constants were determined by Lineweaver–Burk and Dixon plots. For obtaining double reciprocal plots, was measured the reaction absorbance of the enzyme, inhibited by different concentrations of inhibitors, with three concentrations of xanthine (15, 30, and 60 μM) at 295 nm and 37 °C. The corresponding kinetic parameters, namely the Michaelis-Menten constant (Km), maximal velocity (Vmax), inhibitory constant (Ki), and dissociation constant of a binding site for the inhibitor to either free enzyme or the enzyme-substrate complex (KI and KIS) were determined by Equations (2)–(4).

[5] = biological target: T1, Bovine milk xanthine oxidase (XO, EC 1.17.3.2); assay: Xanthine oxidase activity (uric acid formation at 295 nm); assay type: biochemical; conditions: initial velocity versus enzyme amount, 0~12.5 μM of compound
human LDL [6] = assay: Conjugated diene formation on Cu2+ induced LDL oxidation; assay type: biochemical
human LDL [7] = assay: Relative electrophoretic mobility (REM) of Cu2+ oxidized LDL; assay type: biochemical; conditions: 10 μM compound, 10 μM CuSO4, 16 h
Experimental: The relative electrophoretic mobility (REM) of native LDL and oxidized LDL induced by Cu^2+ was performed according to the procedures of references. Before the electrophoresis, the samples containing 10 μM of CuSO4 and 10 μM of nine isoflavones or probucol were treated into LDL (500 μg/mL), then incubated for 16 h at 37 °C in dark condition. The native LDL and pretreated LDL samples loaded onto 0.5% agarose gel in TAE buffer (40 mM Tris-acetate with 1 mM EDTA, pH 8.0) and electrophoresed for 50 min at 100 V. After the electrophoresis, the gel was fixed in 40% ethanol with 10% acetic acid for 30 min, stained with 0.15% coomassie brilliant blue R250, and LDL bands visualized by using the destaining solution (methanol:acetic acid:water, 3:2:15, v/v).

[8] = Dixon plots, read-out: Ki (inhibition constant)
[9] = binding of inhibitor to free enzyme, secondary plot of slope, read-out: KI

T1 sequence (P80457 whole entry): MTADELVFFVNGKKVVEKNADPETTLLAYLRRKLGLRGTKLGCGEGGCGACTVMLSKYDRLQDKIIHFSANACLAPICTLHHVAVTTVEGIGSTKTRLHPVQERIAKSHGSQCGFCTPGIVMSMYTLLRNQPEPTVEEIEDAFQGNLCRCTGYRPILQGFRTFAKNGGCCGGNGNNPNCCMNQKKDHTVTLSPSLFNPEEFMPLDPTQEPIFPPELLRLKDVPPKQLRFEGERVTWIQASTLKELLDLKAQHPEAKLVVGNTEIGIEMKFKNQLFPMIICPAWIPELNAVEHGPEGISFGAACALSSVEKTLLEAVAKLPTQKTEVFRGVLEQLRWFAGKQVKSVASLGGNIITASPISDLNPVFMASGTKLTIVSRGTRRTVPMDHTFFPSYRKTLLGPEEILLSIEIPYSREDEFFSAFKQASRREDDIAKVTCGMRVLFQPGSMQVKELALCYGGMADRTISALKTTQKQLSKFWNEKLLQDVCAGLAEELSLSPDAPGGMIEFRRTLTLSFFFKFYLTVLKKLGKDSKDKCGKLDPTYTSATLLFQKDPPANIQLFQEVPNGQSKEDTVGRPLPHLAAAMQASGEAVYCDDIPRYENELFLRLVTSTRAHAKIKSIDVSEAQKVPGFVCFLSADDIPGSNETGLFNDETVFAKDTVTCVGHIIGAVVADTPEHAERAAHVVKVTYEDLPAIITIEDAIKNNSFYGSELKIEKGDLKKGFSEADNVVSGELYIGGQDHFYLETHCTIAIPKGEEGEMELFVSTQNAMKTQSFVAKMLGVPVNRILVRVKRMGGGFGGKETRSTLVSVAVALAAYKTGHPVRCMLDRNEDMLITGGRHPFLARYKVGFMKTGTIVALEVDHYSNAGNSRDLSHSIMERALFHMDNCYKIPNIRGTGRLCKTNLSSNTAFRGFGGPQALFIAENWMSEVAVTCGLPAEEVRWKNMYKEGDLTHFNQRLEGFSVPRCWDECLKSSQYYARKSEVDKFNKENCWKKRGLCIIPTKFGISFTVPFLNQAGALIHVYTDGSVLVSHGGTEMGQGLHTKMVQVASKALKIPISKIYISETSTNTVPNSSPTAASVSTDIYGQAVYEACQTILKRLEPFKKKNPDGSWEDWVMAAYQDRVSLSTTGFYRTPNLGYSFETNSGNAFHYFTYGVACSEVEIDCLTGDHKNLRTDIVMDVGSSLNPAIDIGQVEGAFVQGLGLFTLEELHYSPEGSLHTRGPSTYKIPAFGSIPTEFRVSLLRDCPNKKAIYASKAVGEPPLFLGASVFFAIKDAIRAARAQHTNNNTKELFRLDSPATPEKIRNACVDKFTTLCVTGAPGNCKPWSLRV
T2 sequence (P80457 whole entry): as above

| Structure (SMILES) | Lag Time of conjugated diene formation (human LDL [1]) [min] | IC50 (human LDL [2]) | Inhibition Rate (human LDL [2]) [%] | IC50 [3] [µM] | Stern–Volmer constant KSV (xanthine oxidase) [L/mol] | Kd (xanthine oxidase) [nM] | number of binding sites n (xanthine oxidase) | Ki [4, 8] [µM] | Inhibition Mode [4] | KIS [4] [µM] | Ki [4, 9] [µM] | Reversibility of XO inhibition [5] | Lag Time of conjugated diene formation (human LDL [6]; 0.3 μM of compound) [min] | Lag Time of conjugated diene formation (human LDL [6]; 0.6 μM of compound) [min] | Lag Time of conjugated diene formation (human LDL [6]; 1.25 μM of compound) [min] | fold more active than genistein in TBARS assay (human LDL [2]; ratio of TBARS IC50 values versus genistein (IC50 = 30.4 μM)) [fold] | Effect on mobility of oxidized LDL (REM) (human LDL [7]) |
| --- | --- | --- | --- | --- | --- | --- | --- | --- | --- | --- | --- | --- | --- | --- | --- | --- | --- |
| O=c1c(-c2ccc(O)cc2)coc2cc(O)cc(O)c12 [Compound 1, genistein] | 80 | 30.4 ± 1.5 µM | 20.3 | 25 ± 2.3 | 18450 | 1990 | 0.7268 | 11.5 | competitive inhibitor |  |  |  |  |  |  |  |  |
| CC(C)=CCc1c2c(c(O)c3c(=O)c(-c4ccc(O)c(O)c4)coc13)C=CC(C)(C)O2 [Compound 2, auriculasin] | > 180 | 2.4 µM | 95.9 | 12.4 | 77550 | 1330 | 1.0359 | 11.1 | Mixed type I | 28.1 | 10.8 |  |  |  |  |  |  |
| CC(C)=CCc1c(O)c(CC=C(C)C)c2occ(-c3ccc(O)c(O)c3)c(=O)c2c1O [Compound 3, 6,8-diprenylorobol] | > 180 | 1.9 µM | 98.6 | 7.8 | 125300 | 1110 | 1.4392 | 5.5 | Mixed type I | 15.5 | 5.7 | reversible |  |  |  |  |  |
| CC(C)=CCc1cc(-c2coc3cc(O)cc(O)c3c2=O)c(CC=C(C)C)c(O)c1O [Compound 4, 5,7,3′,4′-tetrahydroxy-2′,5′-di(3-methylbut-2-enyl)isoflavone] | > 180 | 0.7 µM | 100 | 10.9 | 94970 | 1120 | 1.4031 | 11.5 | Mixed type I | 23.0 | 10.7 |  | 120 | 160 | 180 | 40 |  |
| C=CC(C)(C)C1=Cc2c(c(CC=C(C)C)c3occ(-c4ccc(O)c(O)c4)c(=O)c3c2O)OC1(C)C [Compound 5, flemiphilippinin A] | > 180 | 2.7 µM and 2.8 µM | 94.1 | 14.8 | 55310 | 1380 | 1.0018 | 12.8 | Mixed type I | 26.3 | 12.5 |  |  |  |  |  |  |
| CC(C)=CCc1c(-c2coc3cc(O)cc(O)c3c2=O)cc2c(c1O)OC(C)(C)C=C2 [Compound 6, 5,7,3′-trihydroxy-2′-(3-methylbut-2-enyl)-4′,5′-(3,3-dimethylpyrano)isoflavone] |  | 10.9 µM | 48.8 | 20.4 | 36450 | 1600 | 0.8154 | 19.3 | Mixed type I | 40.0 | 18.8 |  |  |  |  |  | clearly reduced |
| CC(C)=CCc1c(O)c(CC=C(C)C)c2occ(-c3ccc(O)cc3)c(=O)c2c1O [Compound 7, 8-γ,γ-dimethylallylwighteone] | 124 | 15.2 µM | 38.7 | 16.9 | 47970 | 1500 | 0.8836 | 11.3 | Mixed type I | 12.9 | 7.2 |  |  |  |  |  | clearly reduced |
| CC(C)=CCc1c2c(c3occ(-c4ccc(O)cc4)c(=O)c3c1O)C=CC(C)(C)O2 [Compound 8, osajin] | 108 | 24.6 µM | 25.4 | 34.7 | 9870 | 2140 | 0.6889 | 33.9 | Mixed type I | 52.4 | 35.1 |  |  |  |  |  |  |
| COc1cc(-c2coc3c(CC=C(C)C)c(O)c(CC=C(C)C)c(O)c3c2=O)ccc1O [Compound 9, flemingsin] | 128 | 14.6 µM | 40.3 | 36.4 | 9300 | 4110 | 0.6736 | 35.1 | Mixed type I | 49.0 | 35.2 |  |  |  |  |  | clearly reduced |
| CC(C)(Sc1cc(C(C)(C)C)c(O)c(C(C)(C)C)c1)Sc1cc(C(C)(C)C)c(O)c(C(C)(C)C)c1 [Probucol, probucol, reference compound] | 83 | 35.1 µM | 16.4 |  |  |  |  |  |  |  |  |  |  |  |  |  |  |
